Source: US12473304B2, “Heterocyclic PAD4 inhibitors” (BRISTOL-MYERS SQUIBB COMPANY, priority 2020, dated 2025)

biological target: human PAD4 (hPAD4) (Homo sapiens (Human), UniProt Q9UM07); assay: RFMS Human PAD4 Functional Assay 1; format: biochemical; details: RFMS assay 1; 5 nM hPAD4, 250 μM BAEE substrate, 50 μM calcium, 37° C.
Method in brief: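 Recombinant hPAD4 (5 nM) was preincubated with compound (top 50 μM, 0.5% DMSO) for 30 min at 37 °C, then reacted with 250 μM BAEE for 90 min at 37 °C in pH 7.5 HEPES buffer with 50 μM calcium and 5 μM TPEN. Product was derivatized with phenyl glyoxal and quantified by RapidFire MS.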

human PAD4 (hPAD4), sequence (Q9UM07 whole entry): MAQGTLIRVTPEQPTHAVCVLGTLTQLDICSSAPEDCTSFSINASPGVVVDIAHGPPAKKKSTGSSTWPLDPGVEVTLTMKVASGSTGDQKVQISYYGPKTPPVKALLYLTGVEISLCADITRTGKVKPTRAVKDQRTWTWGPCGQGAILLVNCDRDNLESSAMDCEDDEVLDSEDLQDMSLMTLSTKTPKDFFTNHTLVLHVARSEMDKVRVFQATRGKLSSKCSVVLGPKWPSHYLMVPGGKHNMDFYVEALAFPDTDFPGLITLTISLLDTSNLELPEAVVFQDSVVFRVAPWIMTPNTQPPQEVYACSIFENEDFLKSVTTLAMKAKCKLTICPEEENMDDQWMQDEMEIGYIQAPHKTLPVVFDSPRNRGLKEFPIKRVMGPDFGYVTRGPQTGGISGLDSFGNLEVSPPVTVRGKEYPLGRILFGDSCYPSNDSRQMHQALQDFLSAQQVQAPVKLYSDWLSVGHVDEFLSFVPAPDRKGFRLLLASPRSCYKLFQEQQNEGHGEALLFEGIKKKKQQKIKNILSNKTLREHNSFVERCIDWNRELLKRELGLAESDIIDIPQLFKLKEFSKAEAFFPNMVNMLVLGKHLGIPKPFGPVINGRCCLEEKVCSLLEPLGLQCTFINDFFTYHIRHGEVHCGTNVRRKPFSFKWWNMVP

Row | SMILES | IC50
1 | Cc1c(-c2cc3ccc(-c4cccc(O)c4F)nc3n2CC2CC2)nn2cc(C(=O)N3CC4CCC3[C@@H]4N)cc(F)c12 (stereo partly drawn) [Example 49, ((7R)-7-Amino-2-azabicyclo[2.2.1]heptan-2-yl)(2-(1-(cyclopropylmethyl)-6-(2-fluoro-3-hydroxyphenyl)-1H-pyrrolo[2,3-b]pyridin-2-yl)-4-fluoro-3-methylpyrazolo[1,5-a]pyridin-6-yl)methanone] | 36 nM
2 | COC1CN(c2ccc3cc(-c4nn5cc(C(=O)N6CC7CCC6[C@@H]7N)cc(F)c5c4C)n(CC4CC4)c3n2)C1 (stereo partly drawn) [Example 50, ((7R)-7-Amino-2-azabicyclo[2.2.1]heptan-2-yl)(2-(1-(cyclopropylmethyl)-6-(3-methoxyazetidin-1-yl)-1H-pyrrolo[2,3-b]pyridin-2-yl)-4-fluoro-3-methylpyrazolo[1,5-a]pyridin-6-yl)methanone] | 74 nM
3 | Cc1c(-c2cc3ccc(N4CCC[C@@H](O)C4)nc3n2CC2CC2)nn2cc(C(=O)N3CC4CCC3[C@@H]4N)cc(F)c12 (stereo partly shown) [Example 51] | 109 nM
4 | Cc1c(-c2cc3cccnc3n2CC2CC2)nn2cc(C(=O)N3C[C@H](N)C[C@@H](F)C3)cc(F)c12 [Example 52, ((3R,5R)-3-Amino-5-fluoropiperidin-1-yl)(2-(1-(cyclopropylmethyl)-1H-pyrrolo[2,3-b]pyridin-2-yl)-4-fluoro-3-methylpyrazolo[1,5-a]pyridin-6-yl)methanone] | 882 nM
5 | Cc1c(-c2cc3ccc(Cl)nc3n2CC2CC2)nn2cc(C(=O)N3C[C@H](N)C[C@@H](F)C3)cc(F)c12 [Example 53, ((3R,5R)-3-Amino-5-fluoropiperidin-1-yl)(2-(6-chloro-1-(cyclopropylmethyl)-1H-pyrrolo[2,3-b]pyridin-2-yl)-4-fluoro-3-methylpyrazolo[1,5-a]pyridin-6-yl)methanone] | 446 nM
6 | Cc1ccc2cc(-c3nn4cc(C(=O)N5C[C@H](N)C[C@@H](F)C5)cc(F)c4c3C)n(CC3CC3)c2n1 [Example 54, ((3R,5R)-3-Amino-5-fluoropiperidin-1-yl)(2-(1-(cyclopropylmethyl)-6-methyl-1H-pyrrolo[2,3-b]pyridin-2-yl)-4-fluoro-3-methylpyrazolo[1,5-a]pyridin-6-yl)methanone] | 358 nM
7 | Cc1c(-c2cc3ccc(-c4cccc(O)c4F)nc3n2CC2CC2)nn2cc(C(=O)N3C[C@H](N)C[C@@H](F)C3)cc(F)c12 [Example 55, ((3R,5R)-3-Amino-5-fluoropiperidin-1-yl)(2-(1-(cyclopropylmethyl)-6-(2-fluoro-3-hydroxyphenyl)-1H-pyrrolo[2,3-b]pyridin-2-yl)-4-fluoro-3-methylpyrazolo[1,5-a]pyridin-6-yl)methanone] | 543 nM
8 | Cc1c(-c2cc3ccc(-c4ccc(C(N)=O)c(F)c4)nc3n2CC2CC2)nn2cc(C(=O)N3C[C@H](N)C[C@@H](F)C3)cc(F)c12 [Example 56, 4-(2-(6-((3R,5R)-3-Amino-5-fluoropiperidine-1-carbonyl)-4-fluoro-3-methylpyrazolo[1,5-a]pyridin-2-yl)-1-(cyclopropylmethyl)-1H-pyrrolo[2,3-b]pyridin-6-yl)-2-fluorobenzamide] | 468 nM
9 | Cc1c(-c2cc3ccc(C4CC4)nc3n2CC2CC2)nn2cc(C(=O)N3C[C@H](N)C[C@@H](F)C3)cc(F)c12 [Example 57, ((3R,5R)-3-Amino-5-fluoropiperidin-1-yl)(2-(6-cyclopropyl-1-(cyclopropylmethyl)-1H-pyrrolo[2,3-b]pyridin-2-yl)-4-fluoro-3-methylpyrazolo[1,5-a]pyridin-6-yl)methanone] | 781 nM
10 | Cc1c(-c2cc3ccc(-c4ccc(Cl)c5c(NS(C)(=O)=O)nn(C)c45)cc3n2CC2CC2)nn2cc(C(=O)N3CC4CCC3[C@@H]4N)cc(F)c12 (stereo partly drawn) [Example 58, N-(7-(2-(6-((7R)-7-Amino-2-azabicyclo[2.2.1]heptane-2-carbonyl)-4-fluoro-3-methylpyrazolo[1,5-a]pyridin-2-yl)-1-(cyclopropylmethyl)-1H-indol-6-yl)-4-chloro-1-methyl-1H-indazol-3-yl)methanesulfonamide] | 83 nM
